From patent US10550165B2, “Peptide for inducing regeneration of tissue and use thereof” (STEMRIM INC., priority 2011, dated 2020) come the findings set out here.

The first test deals with mouse bone marrow mesenchymal stem cell line (MSC-1 cells), PDGFRα-positive. Description: Migration assay (Boyden / 48-well chemotaxis chamber) on bone marrow mesenchymal stem cell line MSC-1. It is filed as cell-based. Particulars: 2 μM, area of migrated cells by image analysis, FIG. 10. Here is the method: Cells of a mouse bone marrow mesenchymal stem cell line (MSC-1 cells, established by Tamai et al. of Osaka University (PDGFRα-positive cells in bone marrow are mobilized by high mobility group box 1 (HMGB1) to regenerate injured epithelia. (Tamai et al., Proc Natl Acad Sci USA. Apr. 4, 2011))) were detached from dishes using trypsin, and collected by centrifugation at 1200 rpm and 4° C. for 10 minutes. The resulting pellet was loosened and suspended at a cell concentration of 2.0×10^6 to 3.0×10^6 cells/ml by adding Dulbecco's Modified Eagle Medium (D-MEM) containing 10% fetal bovine serum (FBS). The recombinant protein and peptides produced in HEK293 were diluted with D-MEM containing 10% FBS. The negative control used was phosphate buffered saline (PBS). An acrylic Boyden chamber was used; cells of the mouse bone marrow mesenchymal stem cell line prepared at a cell concentration of 3×10^6 cells/ml were placed in its upper layer, while a diluted protein or peptide is added to the bottom layer. More specifically, a 28 μl aliquot of a protein or peptide solution was added to each well of the bottom plate of a 48-well chemotaxis chamber (NEURO PROBE 48WELL CHEMOTAXIS CHAMBER), and a polycarbonate membrane with 8 μm pores (Neuro Probe, Inc, Cat: 866-417-0014) was placed on the bottom plate. Then, an upper plate was placed on the membrane and screwed tightly. 50 μl of cells of the mouse bone marrow mesenchymal stem cell line after concentration adjustment were added to the upper plate wells. The chamber was placed in an incubator under 5% CO2 at 37° C. After four hours, the membrane was removed from the chamber and stained with Diff-Quik (Sysmex, Cat: 16920) to detect cells that migrated through membrane pores to the lower compartment.
The peptides listed below were custom synthesized using the solid phase method by Medical & Biological Laboratories (MBL). The peptides were synthesized based on the mouse HMGB1 sequence (SEQ ID NO: 3). Synthetic peptides described in subsequent Examples were also prepared based on the mouse HMGB1 sequence. • A synthetic peptide consisting of the amino acid sequence from positions 1 to 10 of HMGB1 (1-10); • a synthetic peptide consisting of the amino acid sequence from positions 1 to 34 of HMGB1 (1-34); • a synthetic peptide consisting of the amino acid sequence from positions 37 to 62 of HMGB1 (37-62); • a synthetic peptide consisting of the amino acid sequence from positions 27 to 62 of HMGB1 (27-62); • a synthetic peptide consisting of the amino acid sequence from positions 56 to 72 of HMGB1 (56-72); • a synthetic peptide consisting of the amino acid sequence from positions 11 to 20 of HMGB1 (11-20); • a synthetic peptide consisting of the amino acid sequence from positions 11 to 25 of HMGB1 (11-25); • a synthetic peptide consisting of the amino acid sequence from positions 11 to 30 of HMGB1 (11-30); • a synthetic peptide consisting of the amino acid sequence from positions 11 to 34 of HMGB1 (11-34); • a synthetic peptide consisting of the amino acid sequence from positions 11 to 44 of HMGB1 (11-44); • a synthetic peptide consisting of the amino acid sequence from positions 17 to 44 of HMGB1 (17-44); • a synthetic peptide consisting of the amino acid sequence from positions 1 to 25 of HMGB1 (1-25); and the whole mouse HMGB1 produced in HEK293 (1-215(HEK)) as a positive control were adjusted to 100 μg/ml and placed in the lower layer of a chemotaxis chamber to assess the migration-promoting activity on bone marrow mesenchymal stem cell line (MSC-1). Results
As positive controls, centrifuged supernatant of the skin of a one-day-old mouse (one individual) incubated in PBS at 4° C. for 12 hours, and the whole mouse HMGB1 (HMGB1(HEK_1-215)) produced in HEK293 were used. […]
Consider “peptide (1-44) produced in E. coli: amino acids of positions 1 to 44 of mouse HMGB1 produced using E. coli, tag removed by HRV3C (MGKGDPKKPRGKMSSYAFFVQTCREEHKKKHPDASVNFSEFSKK; UniProt P63158 1-44, looked up, fragment)”, for which the “migration-promoting activity relative to the full-length HMGB1, compared per equal mass” value is “about 8 times” and the “migration-promoting activity relative to the full-length HMGB1, compared per equal mole” value is given as “about 1.6 times”.

Staying with this test, now noted: peptides produced using HEK293, concentration not stated.
In the case of “1-42: peptide comprising the amino acid sequence of positions 1 to 42, produced using HEK293 (MGKGDPKKPRGKMSSYAFFVQTCREEHKKKHPDASVNFSEFS; UniProt P63158 1-42, looked up, fragment)”, the “activity of promoting the migration of MSC-1” value (“activity … of MSC-1” below) is recorded as “showed the activity of promoting the migration of bone marrow mesenchymal stem line MSC-1”.
Take “1-48: peptide comprising the amino acid sequence of positions 1 to 48, produced using HEK293 (MGKGDPKKPRGKMSSYAFFVQTCREEHKKKHPDASVNFSEFSKKCSER; UniProt P09429 1-48, looked up, fragment)”: the “activity … of MSC-1” value is “showed the activity of promoting the migration of bone marrow mesenchymal stem line MSC-1”.
As to “1-52: peptide comprising the amino acid sequence of positions 1 to 52, produced using HEK293 (MGKGDPKKPRGKMSSYAFFVQTCREEHKKKHPDASVNFSEFSKKCSERWKTM; UniProt P09429 1-52, looked up, fragment)”, the “activity … of MSC-1” value is on record as “showed the activity of promoting the migration of bone marrow mesenchymal stem line MSC-1”.
Consider “1-45: peptide comprising the amino acid sequence of positions 1 to 45, produced using HEK293 (MGKGDPKKPRGKMSSYAFFVQTCREEHKKKHPDASVNFSEFSKKC; UniProt P63158 1-45, looked up, fragment)”, for which the “activity … of MSC-1” value is “showed the activity of promoting the migration of bone marrow mesenchymal stem line MSC-1”.
Turning to “1-46: peptide comprising the amino acid sequence of positions 1 to 46, produced using HEK293 (MGKGDPKKPRGKMSSYAFFVQTCREEHKKKHPDASVNFSEFSKKCS; UniProt P63158 1-46, looked up, fragment)”, the “activity … of MSC-1” value is reported as “showed the activity of promoting the migration of bone marrow mesenchymal stem line MSC-1”.
With “1-43: peptide comprising the amino acid sequence of positions 1 to 43, produced using HEK293 (MGKGDPKKPRGKMSSYAFFVQTCREEHKKKHPDASVNFSEFSK; UniProt P09429 1-43, looked up, fragment)”, the “activity … of MSC-1” value is given as “showed the activity of promoting the migration of bone marrow mesenchymal stem line MSC-1”.
As for “1-51: peptide comprising the amino acid sequence of positions 1 to 51, produced using HEK293 (MGKGDPKKPRGKMSSYAFFVQTCREEHKKKHPDASVNFSEFSKKCSERWKT; UniProt P09429 1-51, looked up, fragment)”, the “activity … of MSC-1” value is “showed the activity of promoting the migration of bone marrow mesenchymal stem line MSC-1”.
On to “1-47: peptide comprising the amino acid sequence of positions 1 to 47, produced using HEK293 (MGKGDPKKPRGKMSSYAFFVQTCREEHKKKHPDASVNFSEFSKKCSE; UniProt P63158 1-47, looked up, fragment)”, for which the “activity … of MSC-1” value was “showed the activity of promoting the migration of bone marrow mesenchymal stem line MSC-1”.

Still in this test, the particulars now being: synthetic peptides, 5 μM, FIGS. 8A and 8B.
On to “(17-30): synthetic peptide consisting of the amino acid sequence from positions 17 to 30 of HMGB1 (AFFVQTCREEHKKK; UniProt P09429 17-30, looked up, fragment)”, for which the migration-promoting activity result is “weak activity”.
Turning to “(16-25): synthetic peptide consisting of the amino acid sequence from positions 16 to 25 of HMGB1 (YAFFVQTCRE; UniProt P09429 16-25, looked up, fragment)”, the migration-promoting activity entry is “weak activity”.
Take “(11-27): synthetic peptide consisting of the amino acid sequence from positions 11 to 27 of HMGB1 (GKMSSYAFFVQTCREEH; UniProt P09429 11-27, looked up, fragment)”: the migration-promoting activity entry is “strong migration-promoting activity”.
Consider “(16-30): synthetic peptide consisting of the amino acid sequence from positions 16 to 30 of HMGB1 (YAFFVQTCREEHKKK; UniProt P09429 16-30, looked up, fragment)”, for which the migration-promoting activity result is recorded as “weak activity”.
Take “(14-25): synthetic peptide consisting of the amino acid sequence from positions 14 to 25 of HMGB1 (SSYAFFVQTCRE; UniProt P09429 14-25, looked up, fragment)”: the migration-promoting activity entry was “weak activity”.
“(14-30): synthetic peptide consisting of the amino acid sequence from positions 14 to 30 of HMGB1 (SSYAFFVQTCREEHKKK; UniProt P09429 14-30, looked up, fragment)”: the migration-promoting activity result is on record as “strong migration-promoting activity”.
Turning to “(15-30): synthetic peptide consisting of the amino acid sequence from positions 15 to 30 of HMGB1 (SYAFFVQTCREEHKKK; UniProt P09429 15-30, looked up, fragment)”, the migration-promoting activity result is listed as “weak activity”.

The same test, now with this note: synthetic peptides, 10 μM and 5 μM, FIG. 9.
As to “(55-84): synthetic peptide consisting of the amino acids of positions 55 to 84 (KEKGKFEDMAKADKARYEREMKTYIPPKGE; UniProt P09429 55-84, looked up, fragment)”, the migration-promoting activity result was “exhibited migration-promoting activity which was however weaker as compared to synthetic peptides (1-44) and (1-34)”.

Staying with this test, now noted: synthetic peptides, 100 μg/ml, positive control 1-215(HEK), FIG. 7.
Take “(11-30): synthetic peptide consisting of the amino acid sequence from positions 11 to 30 of HMGB1 (GKMSSYAFFVQTCREEHKKK; UniProt P09429 11-30, looked up, fragment)”: the migration-promoting activity entry was “activity comparable to or higher than that of the positive control”.
“(11-44): synthetic peptide consisting of the amino acid sequence from positions 11 to 44 of HMGB1 (GKMSSYAFFVQTCREEHKKKHPDASVNFSEFSKK; UniProt P09429 11-44, looked up, fragment)”: the migration-promoting activity result is listed as “activity comparable to or higher than that of the positive control”.
As to “(1-25): synthetic peptide consisting of the amino acid sequence from positions 1 to 25 of HMGB1 (MGKGDPKKPRGKMSSYAFFVQTCRE; UniProt P09429 1-25, looked up, fragment)”, the migration-promoting activity entry was “found to have the activity”.
